How the values were obtained:
[1] = biological target: T1, NPC1-like intracellular cholesterol transporter 1 (Homo sapiens, UniProt Q9UHC9); assay: (§1) Displacement of [35S](2S,3S,4S,5R,6S)-6-(4-((2S,3R)-3-((S)-3-(4-fluorophenyl)-3-hydroxypropyl)-1-(4-(3-(methylsulfonamido)prop-1-ynyl)phenyl)-4-oxoazetidin-2-yl)phenoxy)-3,4,5-trihydroxytetrahydro-2H-pyran-2-carboxylic acid from recombinant human NPC1L1 expressed in HEK cells by single tube filtration assay; assay type: cell-based, HEK293
T1 sequence (Q9UHC9 whole entry): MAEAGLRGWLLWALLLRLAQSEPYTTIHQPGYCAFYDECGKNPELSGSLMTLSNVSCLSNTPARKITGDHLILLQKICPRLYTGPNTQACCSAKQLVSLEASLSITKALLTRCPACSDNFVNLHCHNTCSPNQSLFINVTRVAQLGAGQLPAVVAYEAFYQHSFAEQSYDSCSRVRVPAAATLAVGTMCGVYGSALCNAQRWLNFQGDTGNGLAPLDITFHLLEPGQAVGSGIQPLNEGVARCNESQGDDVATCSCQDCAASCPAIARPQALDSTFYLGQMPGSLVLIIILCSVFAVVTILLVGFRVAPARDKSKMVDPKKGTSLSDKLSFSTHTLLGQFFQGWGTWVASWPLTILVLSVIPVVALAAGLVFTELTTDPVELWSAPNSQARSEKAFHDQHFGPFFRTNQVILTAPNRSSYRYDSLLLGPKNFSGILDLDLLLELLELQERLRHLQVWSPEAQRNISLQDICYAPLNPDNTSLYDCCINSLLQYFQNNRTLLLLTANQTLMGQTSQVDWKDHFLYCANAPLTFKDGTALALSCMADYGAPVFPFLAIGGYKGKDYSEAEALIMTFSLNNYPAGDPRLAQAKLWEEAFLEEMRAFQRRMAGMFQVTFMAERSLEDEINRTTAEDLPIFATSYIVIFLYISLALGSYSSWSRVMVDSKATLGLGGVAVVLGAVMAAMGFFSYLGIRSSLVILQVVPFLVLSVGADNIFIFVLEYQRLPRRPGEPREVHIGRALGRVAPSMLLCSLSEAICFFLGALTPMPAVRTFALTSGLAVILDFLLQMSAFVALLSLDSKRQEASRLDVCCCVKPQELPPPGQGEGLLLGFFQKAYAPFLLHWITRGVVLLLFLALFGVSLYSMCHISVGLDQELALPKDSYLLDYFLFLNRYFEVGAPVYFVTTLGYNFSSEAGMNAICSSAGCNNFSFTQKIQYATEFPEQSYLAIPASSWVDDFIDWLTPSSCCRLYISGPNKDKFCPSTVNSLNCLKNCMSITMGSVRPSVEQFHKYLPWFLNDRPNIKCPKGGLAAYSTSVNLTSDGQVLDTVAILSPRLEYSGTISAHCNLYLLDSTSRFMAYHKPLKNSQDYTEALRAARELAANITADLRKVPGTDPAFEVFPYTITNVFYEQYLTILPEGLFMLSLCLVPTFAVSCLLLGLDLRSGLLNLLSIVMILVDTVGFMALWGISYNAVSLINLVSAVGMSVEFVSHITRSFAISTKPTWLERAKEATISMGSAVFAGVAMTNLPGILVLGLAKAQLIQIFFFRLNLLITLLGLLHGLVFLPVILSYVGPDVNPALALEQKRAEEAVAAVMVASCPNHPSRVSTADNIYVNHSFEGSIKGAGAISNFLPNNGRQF

[2] = biological target: NPC1-like intracellular cholesterol transporter 1 (Mus musculus, UniProt Q6T3U4); assay: as §1, with “mouse” for “human”; assay type: cell-based, HEK293
NPC1-like intracellular cholesterol transporter 1 (Mus musculus, UniProt Q6T3U4), sequence (Q6T3U4 21-1333 limits assumed): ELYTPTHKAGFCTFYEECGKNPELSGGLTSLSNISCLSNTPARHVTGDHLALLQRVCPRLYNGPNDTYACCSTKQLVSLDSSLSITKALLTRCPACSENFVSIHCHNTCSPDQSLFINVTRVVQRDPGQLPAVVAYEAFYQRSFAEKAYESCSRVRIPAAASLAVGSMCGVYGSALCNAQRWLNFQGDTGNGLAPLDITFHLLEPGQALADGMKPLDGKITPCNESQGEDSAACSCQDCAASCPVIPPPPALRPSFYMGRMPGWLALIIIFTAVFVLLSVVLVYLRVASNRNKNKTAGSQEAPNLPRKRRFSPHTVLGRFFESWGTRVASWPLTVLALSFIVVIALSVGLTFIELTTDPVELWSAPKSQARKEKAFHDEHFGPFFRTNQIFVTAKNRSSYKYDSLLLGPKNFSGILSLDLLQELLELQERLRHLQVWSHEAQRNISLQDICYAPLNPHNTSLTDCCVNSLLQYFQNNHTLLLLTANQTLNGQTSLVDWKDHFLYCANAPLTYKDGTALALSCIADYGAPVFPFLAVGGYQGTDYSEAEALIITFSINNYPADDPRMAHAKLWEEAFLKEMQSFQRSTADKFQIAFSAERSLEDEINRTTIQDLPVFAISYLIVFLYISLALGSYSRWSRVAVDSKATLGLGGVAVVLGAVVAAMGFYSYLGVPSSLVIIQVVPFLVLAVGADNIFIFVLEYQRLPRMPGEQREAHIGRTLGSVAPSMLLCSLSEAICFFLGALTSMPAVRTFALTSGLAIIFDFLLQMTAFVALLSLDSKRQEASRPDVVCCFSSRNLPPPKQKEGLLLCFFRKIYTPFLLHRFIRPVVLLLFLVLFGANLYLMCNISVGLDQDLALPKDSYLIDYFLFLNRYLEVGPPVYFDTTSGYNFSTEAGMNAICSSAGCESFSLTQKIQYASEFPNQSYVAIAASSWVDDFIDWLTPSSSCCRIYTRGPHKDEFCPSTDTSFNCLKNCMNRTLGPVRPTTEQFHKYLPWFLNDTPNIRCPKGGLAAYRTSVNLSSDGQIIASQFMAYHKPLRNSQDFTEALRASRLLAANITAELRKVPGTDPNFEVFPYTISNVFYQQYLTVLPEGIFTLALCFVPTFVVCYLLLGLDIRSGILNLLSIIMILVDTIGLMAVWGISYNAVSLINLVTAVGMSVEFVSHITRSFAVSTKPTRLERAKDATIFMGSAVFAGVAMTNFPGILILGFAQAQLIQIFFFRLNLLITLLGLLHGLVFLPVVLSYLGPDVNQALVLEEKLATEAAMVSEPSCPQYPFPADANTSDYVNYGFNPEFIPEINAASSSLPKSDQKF

[3] = biological target: T2, NPC1-like intracellular cholesterol transporter 1 (Rattus norvegicus, UniProt Q6T3U3); assay: as §1, with “rat intestinal brush border membrane” for “recombinant human”, “NPC1L1” for “NPC1L1 expressed in HEK cells”
T2 sequence (Q6T3U3 21-1331 limits assumed): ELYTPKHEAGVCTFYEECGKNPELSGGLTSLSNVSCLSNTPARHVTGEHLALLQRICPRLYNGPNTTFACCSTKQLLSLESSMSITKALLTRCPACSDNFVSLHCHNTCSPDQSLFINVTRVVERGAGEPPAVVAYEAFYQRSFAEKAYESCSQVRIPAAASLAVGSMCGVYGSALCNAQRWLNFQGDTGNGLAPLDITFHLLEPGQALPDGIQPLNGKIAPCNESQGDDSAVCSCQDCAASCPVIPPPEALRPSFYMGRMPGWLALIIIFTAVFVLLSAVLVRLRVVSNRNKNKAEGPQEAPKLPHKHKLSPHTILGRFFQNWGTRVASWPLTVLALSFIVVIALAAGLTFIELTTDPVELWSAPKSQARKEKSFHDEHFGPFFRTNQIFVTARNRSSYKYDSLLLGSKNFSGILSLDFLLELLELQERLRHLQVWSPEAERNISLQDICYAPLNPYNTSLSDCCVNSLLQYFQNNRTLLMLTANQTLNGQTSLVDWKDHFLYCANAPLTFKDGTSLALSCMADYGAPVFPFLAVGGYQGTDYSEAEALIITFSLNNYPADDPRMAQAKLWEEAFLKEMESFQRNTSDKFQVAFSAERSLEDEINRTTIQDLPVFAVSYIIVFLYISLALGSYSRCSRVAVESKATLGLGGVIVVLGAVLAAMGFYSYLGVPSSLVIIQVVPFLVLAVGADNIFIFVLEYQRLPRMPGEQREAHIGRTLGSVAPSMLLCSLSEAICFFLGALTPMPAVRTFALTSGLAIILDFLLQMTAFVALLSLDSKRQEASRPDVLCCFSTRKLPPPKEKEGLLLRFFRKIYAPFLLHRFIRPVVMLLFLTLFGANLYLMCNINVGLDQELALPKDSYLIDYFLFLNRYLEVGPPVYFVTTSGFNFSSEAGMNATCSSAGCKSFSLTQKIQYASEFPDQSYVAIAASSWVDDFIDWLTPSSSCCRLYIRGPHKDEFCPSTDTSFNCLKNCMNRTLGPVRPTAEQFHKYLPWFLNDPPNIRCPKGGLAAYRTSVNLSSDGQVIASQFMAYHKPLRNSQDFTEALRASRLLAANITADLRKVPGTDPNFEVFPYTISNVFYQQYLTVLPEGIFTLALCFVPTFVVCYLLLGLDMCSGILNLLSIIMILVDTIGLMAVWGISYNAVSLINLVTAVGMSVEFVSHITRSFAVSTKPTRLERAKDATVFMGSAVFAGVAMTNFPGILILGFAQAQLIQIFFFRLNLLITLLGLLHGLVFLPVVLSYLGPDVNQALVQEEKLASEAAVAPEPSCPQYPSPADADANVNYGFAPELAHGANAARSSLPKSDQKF

[4] = biological target: T2, NPC1-like intracellular cholesterol transporter 1; assay: as §1, with “rat” for “human”; assay type: cell-based, HEK293
[5] = biological target: T1, NPC1-like intracellular cholesterol transporter 1; assay: as §1, with “from” for “from recombinant”, “human intestinal brush border membrane” for “human”, “NPC1L1” for “NPC1L1 expressed in HEK cells”

How did the IC50 [1] turn out when `C[35S](=O)(=O)NCC#Cc1ccc(N2C(=O)[C@H](CC[C@H](O)c3ccc(F)cc3)[C@H]2c2ccc(O[C@@H]3O[C@H](C(=O)O)[C@@H](O)[C@H](O)[C@H]3O)cc2)cc1` was run?
Its IC50 is 4 nM.

And the IC50 [2]?
Its IC50 is 44 nM.

And the IC50 [3]?
The IC50 was 4 nM.

What about the IC50 [4] of the same compound?
Its IC50 is 4 nM.

And the IC50 [5]?
Its IC50 is 4 nM.

Reference: ChEMBL document CHEMBL1155303, “Multiple strategies for the preparation of a sulfur-35 labeled NPC1L1 radioligand” (Bioorg Med Chem Lett, 2009)
